According to patent EP0454367B1, “Growth hormone releasing factor analogs” (ELI LILLY AND COMPANY, priority 1990, dated 1991):
Starred links: 1 amine or outer side, 2 acyl side, 3 side chain; linkers in the order of their positions; H or OH if unused. Non-standard residues stand in square brackets, D forms with d. Residues, ends and D or L forms follow the SMILES beside them. *: point of attachment. X3 = O=C([C@H](Cc1ccc(O)cc1)N(CC(O)CO)[*:1])[*:2]; X2 = C[C@@H](C(=O)[*:2])N(CC(O)CO)[*:1]; X1 = O=C([C@@H]1CCCN1CC(O)CO)*; NMeA = CN[C@@H](C)C(=O)O

Molecular target: T1, Rat Pituitary Cells (Rattus norvegicus, UniProt Q02644)
T1 sequence (Q02644 23-464): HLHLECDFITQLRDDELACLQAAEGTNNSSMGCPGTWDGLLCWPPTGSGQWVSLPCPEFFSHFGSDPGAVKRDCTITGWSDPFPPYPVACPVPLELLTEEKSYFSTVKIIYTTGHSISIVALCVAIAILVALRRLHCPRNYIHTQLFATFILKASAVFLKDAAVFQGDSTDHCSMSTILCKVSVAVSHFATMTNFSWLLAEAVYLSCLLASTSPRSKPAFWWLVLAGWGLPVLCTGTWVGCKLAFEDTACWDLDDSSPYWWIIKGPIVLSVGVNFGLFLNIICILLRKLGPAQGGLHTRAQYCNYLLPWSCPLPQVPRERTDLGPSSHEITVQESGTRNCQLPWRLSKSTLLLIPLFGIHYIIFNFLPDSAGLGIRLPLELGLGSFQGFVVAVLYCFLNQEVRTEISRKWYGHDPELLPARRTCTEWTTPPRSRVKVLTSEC
Experiment: GRF-analog mediated GH secretion from rat pituitary cells (method of Heiman et al.)
Format: cell-based
Conditions: EC50 [R^12,T^15,R^21,L^27]hGRF(1-29)NH2 / EC50 analog
Procedure: The polypeptide compounds of the invention may be assayed in numerous systems. One in vivo assay is carried out in sodium pentobarbital-anesthetized rats. Wehrenberg et al., Biochem. Biophys. Res. Commun. 109:382 (1982). Growth hormone release is measured in vitro with rat anterior pituitary cells. Heiman et al., Endocrinol. 116:410 (1985). Assays are also performed in wether lambs as described in the Examples provided hereinafter.
Various bGRF peptide analogs were synthesized by the solid phase synthesis method as described in U.S. Patent 4,617,149. The compounds were assayed in rat pituitary cells by the method of Heiman et al., Endocrinol. 116:410 (1985). The analogs are based on the sequence of the first 29 amino acids of human growth hormone releasing factor with the substitutions listed.

| Structure (SMILES) | Relative Potency (% of std) |
| --- | --- |
| CC[C@H](C)[C@H](NC(=O)[C@H](C)NC(=O)[C@H](CC(=O)O)NC(=O)[C@H](C)NC(=O)[C@H](Cc1ccc(O)cc1)NC(=O)[C@H](C)NCC(O)CO)C(=O)N[C@@H](Cc1ccccc1)C(=O)N[C@H](C(=O)N[C@@H](CC(N)=O)C(=O)N[C@@H](CO)C(=O)N[C@@H](Cc1ccc(O)cc1)C(=O)N[C@@H](CCCNC(=N)N)C(=O)N[C@@H](CCCNC(=N)N)C(=O)N[C@H](C(=O)N[C@@H](CC(C)C)C(=O)N[C@H](C(=O)N[C@@H](CCC(N)=O)C(=O)N[C@@H](CC(C)C)C(=O)N[C@@H](CO)C(=O)N[C@@H](C)C(=O)N[C@@H](CCCNC(=N)N)C(=O)N[C@@H](CCCNC(=N)N)C(=O)N[C@@H](CC(C)C)C(=O)N[C@@H](CC(C)C)C(=O)N[C@@H](CCC(N)=O)C(=O)N[C@@H](CC(=O)O)C(=O)N[C@H](C(=O)N[C@@H](CC(C)C)C(=O)N[C@@H](CO)C(=O)N[C@@H](CCCNC(=N)N)C(N)=O)[C@@H](C)CC)[C@@H](C)O)C(C)C)[C@@H](C)O (some centres unmarked) [DHP[A^0,R^12,T^15,R^21,L^27]hGRF(1-29)NH2] (H-[X2]YADAIFTNSYRRVLTQLSARRLLQDILSR-NH2) | .335 % of std |
| CC[C@H](C)[C@H](NC(=O)[C@H](C)NC(=O)[C@H](CC(=O)O)NC(=O)[C@H](C)NC(=O)[C@H](Cc1ccc(O)cc1)NC(=O)[C@@H]1CCCN1CC(O)CO)C(=O)N[C@@H](Cc1ccccc1)C(=O)N[C@H](C(=O)N[C@@H](CC(N)=O)C(=O)N[C@@H](CO)C(=O)N[C@@H](Cc1ccc(O)cc1)C(=O)N[C@@H](CCCNC(=N)N)C(=O)N[C@@H](CCCNC(=N)N)C(=O)N[C@H](C(=O)N[C@@H](CC(C)C)C(=O)N[C@H](C(=O)N[C@@H](CCC(N)=O)C(=O)N[C@@H](CC(C)C)C(=O)N[C@@H](CO)C(=O)N[C@@H](C)C(=O)N[C@@H](CCCNC(=N)N)C(=O)N[C@@H](CCCNC(=N)N)C(=O)N[C@@H](CC(C)C)C(=O)N[C@@H](CC(C)C)C(=O)N[C@@H](CCC(N)=O)C(=O)N[C@@H](CC(=O)O)C(=O)N[C@H](C(=O)N[C@@H](CC(C)C)C(=O)N[C@@H](CO)C(=O)N[C@@H](CCCNC(=N)N)C(N)=O)[C@@H](C)CC)[C@@H](C)O)C(C)C)[C@@H](C)O (some centres unmarked) [DHP[P^0,R^12,T^15,R^21,L^27]hGRF(1-29)NH2] (X1-YADAIFTNSYRRVLTQLSARRLLQDILSR-NH2) | .13 % of std |
| CC[C@H](C)[C@H](NC(=O)[C@H](C)NC(=O)[C@H](CC(=O)O)NC(=O)[C@H](C)NC(=O)[C@H](Cc1ccc(O)cc1)NC(=O)[C@@H]1CCCN1C(=O)[C@@H]1CCCN1CC(O)CO)C(=O)N[C@@H](Cc1ccccc1)C(=O)N[C@H](C(=O)N[C@@H](CC(N)=O)C(=O)N[C@@H](CO)C(=O)N[C@@H](Cc1ccc(O)cc1)C(=O)N[C@@H](CCCNC(=N)N)C(=O)N[C@@H](CCCNC(=N)N)C(=O)N[C@H](C(=O)N[C@@H](CC(C)C)C(=O)N[C@H](C(=O)N[C@@H](CCC(N)=O)C(=O)N[C@@H](CC(C)C)C(=O)N[C@@H](CO)C(=O)N[C@@H](C)C(=O)N[C@@H](CCCNC(=N)N)C(=O)N[C@@H](CCCNC(=N)N)C(=O)N[C@@H](CC(C)C)C(=O)N[C@@H](CC(C)C)C(=O)N[C@@H](CCC(N)=O)C(=O)N[C@@H](CC(=O)O)C(=O)N[C@H](C(=O)N[C@@H](CC(C)C)C(=O)N[C@@H](CO)C(=O)N[C@@H](CCCNC(=N)N)C(N)=O)[C@@H](C)CC)[C@@H](C)O)C(C)C)[C@@H](C)O (some centres unmarked) [DHP[P^-1,P^0,R^12,T^15,R^21,L^27]hGRF(1-29)NH2] (X1-PYADAIFTNSYRRVLTQLSARRLLQDILSR-NH2) | .14 % of std |
| CC[C@H](C)[C@H](NC(=O)[C@H](C)NC(=O)[C@H](CC(=O)O)NC(=O)[C@H](C)NC(=O)[C@H](Cc1ccc(O)cc1)NCC(O)CO)C(=O)N[C@@H](Cc1ccccc1)C(=O)N[C@H](C(=O)N[C@@H](CC(N)=O)C(=O)N[C@@H](CO)C(=O)N[C@@H](Cc1ccc(O)cc1)C(=O)N[C@@H](CCCNC(=N)N)C(=O)N[C@@H](CCCNC(=N)N)C(=O)N[C@H](C(=O)N[C@@H](CC(C)C)C(=O)N[C@H](C(=O)N[C@@H](CCC(N)=O)C(=O)N[C@@H](CC(C)C)C(=O)N[C@@H](CO)C(=O)N[C@@H](C)C(=O)N[C@@H](CCCNC(=N)N)C(=O)N[C@@H](CCCNC(=N)N)C(=O)N[C@@H](CC(C)C)C(=O)N[C@@H](CC(C)C)C(=O)N[C@@H](CCC(N)=O)C(=O)N[C@@H](CC(=O)O)C(=O)N[C@H](C(=O)N[C@@H](CC(C)C)C(=O)N[C@@H](CO)C(=O)N[C@@H](CCCNC(=N)N)C(N)=O)[C@@H](C)CC)[C@@H](C)O)C(C)C)[C@@H](C)O (some centres unmarked) [DHP[R^12,T^15,R^21,L^27]hGRF(1-29)NH2] (H-[X3]ADAIFTNSYRRVLTQLSARRLLQDILSR-NH2) | .8 % of std |
| CC[C@H](C)[C@H](NC(=O)[C@H](C)NC(=O)[C@H](CC(=O)O)NC(=O)[C@H](C)NC(=O)[C@H](Cc1ccc(O)cc1)NC(=O)[C@H](C)NC)C(=O)N[C@@H](Cc1ccccc1)C(=O)N[C@H](C(=O)N[C@@H](CC(N)=O)C(=O)N[C@@H](CO)C(=O)N[C@@H](Cc1ccc(O)cc1)C(=O)N[C@@H](CCCNC(=N)N)C(=O)N[C@@H](CCCNC(=N)N)C(=O)N[C@H](C(=O)N[C@@H](CC(C)C)C(=O)N[C@H](C(=O)N[C@@H](CCC(N)=O)C(=O)N[C@@H](CC(C)C)C(=O)N[C@@H](CO)C(=O)N[C@@H](C)C(=O)N[C@@H](CCCNC(=N)N)C(=O)N[C@@H](CCCNC(=N)N)C(=O)N[C@@H](CC(C)C)C(=O)N[C@@H](CC(C)C)C(=O)N[C@@H](CCC(N)=O)C(=O)N[C@@H](CC(=O)O)C(=O)N[C@H](C(=O)N[C@@H](CC(C)C)C(=O)N[C@@H](CO)C(=O)N[C@@H](CCCNC(=N)N)C(N)=O)[C@@H](C)CC)[C@@H](C)O)C(C)C)[C@@H](C)O [[N-Me-A^0,R^12,T^15,R^21,L^27]hGRF(1-29)NH2] (H-[NMeA]YADAIFTNSYRRVLTQLSARRLLQDILSR-NH2) | .17 % of std |
